Like-named read-outs stand apart in the source and are kept apart here.
Experiments:
[1] = test system: human DU145 prostate carcinoma cells; assay: Cell growth assay, human DU145 prostate carcinoma cells (CellTiter 96 Aqueous One, 72 h); assay type: cell-based; settings: for concentration achieving 90% of growth suppression: individual agent (FIG. 6)
Experimental: (§1) Cultures of cells, seeded in 0.1 mL medium with a density of 1,500 DU145 cells/well or 1,200 B16 cells/well in a 96-well plate, were incubated for 24 h at 37° C. in a humidified atmosphere of 5% CO2. At 24 h, the medium was decanted from each well and replaced with 0.1 mL fresh medium containing different concentrations of the test agents. Incubation continued for additional 48 h (B16) or 72 h (DU145). Following a quick rinse with 0.1 mL Hank's Balanced Salt Solution (HBSS), the 48-h (B16) or 72-h (DU145) cell populations were determined by adding 20 μL of CellTiter 96® Aqueous One Solution (Promega, Madison, Wis.) to each well; plates were held in the dark at 37° C. for 2 h and then read with a Synergy HT multi-plate reader (Biotek Instruments, Inc., Winooski, Vt.) and analyzed using the Gen5™ software (Biotek Instruments, Inc.). Absorbances from wells containing cell-free medium were used as baselines and were deducted from those of other cell-containing wells. The IC50 value is the concentration of xanthorrhizol required to suppress the net increase in cell number by 50%.
(§2) One-way analysis of variance (ANOVA) and Kruskal-Wallis tests were performed to assess the differences between groups using Prism® 7.0 software (GraphPad Software Inc., San Diego, Calif.). Differences in means were analyzed by Dunnett's multiple comparison test unless specified otherwise. Values were mean±standard error of mean (SEM). Levels of significance were designated as P<0.05. […] The constant-ratio combination design of xanthorrhizol and d-δ-tocotrienol in our study allowed automated creation of the classic isobologram by using the CompuSyn software. CI values lower than 1 indicate synergistic effect of the agents (Tallarida 2006).
Human DU145 prostate carcinoma cells were cultured in Roswell Park Memorial Institute ([…]) medium supplemented with 10% Fetal Bovine Serum (FBS; Fisher Scientific, Houston, Tex.), 1% penicillin-streptomycin (Fisher Scientific), and 0.8% gentamicin (Fisher Scientific).

[2] = test system: murine B16 melanoma cells; settings: McAnally, Gupta et al. 2007, read-out: previous reported IC50, concentration required to elicit 50% of growth inhibition; cited from earlier work
[3] = test system: murine B16 melanoma cells; assay: Cell growth assay, murine B16 melanoma cells (CellTiter 96 Aqueous One, 48 h); assay type: cell-based; settings: for suppression of the growth of B16 cells: P>0.05
Experimental: as §1, §2
(§3) Murine B16 melanoma cells were cultured in Dulbecco's Modified Eagle's Medium (DMEM) supplemented with 10% FBS, 1% penicillin-streptomycin and 0.8% gentamicin. For optimal growth, cells were incubated at 37° C. in a humidified atmosphere of 5% CO2. d-δ-Tocotrienol and xanthorrhizol were pre-dissolved in ethyl alcohol. All treated cultures contained 0.1% (v/v) of ethyl alcohol.

[4] = test system: murine B16 melanoma cells; assay: Cell cycle analysis by flow cytometry (propidium iodide DNA content), B16 cells; assay type: cell-based; settings: 24-h; for percentage of cells at the G1 phase: mean±SEM, control 56.1±1.6%, no significant change
Experimental: Cells were seeded in 25 cm^2 flasks (Becton Dickinson Labware, Franklin Lakes, N.J.) at 1×10^6 cells (B16) per flask with 3 mL medium/flask and incubated for 24 h. Medium was then decanted and cultures were replenished with fresh medium containing the test agents that had been dissolved in ethyl alcohol. Following an additional 24-h incubation, adherent cells were harvested by trypsinization and pelleted by low speed centrifugation at 500 g for 5 min. Cell pellets were gently fixed in 1 mL of 70% ethanol-PBS mixture at −20° C. overnight and washed with PBS before 5×10^5 cells were re-suspended in 500 μL of PBS containing freshly prepared propidium iodide and RNase A (Roche Diagnostics, Indianapolis, Ind.) and incubated at 37° C. in the dark for 30 min as described (Yeganehjoo, DeBose-Boyd et al. 2017). Aliquots of 200 μL of the stained cells were analyzed for DNA content using a BD LSR Fortessa flow cytometer (BD Biosciences, San Jose, Calif.). The distribution of cells in the G1 and S phases of the cell cycle was determined using MultiCycle AV software (Phoenix Flow Systems, San Diego, Calif.).
as §3
The effect of blends of xanthorrhizol and d-δ-tocotrienol were evaluated on the cell cycle distribution of murine B16 melanoma cells (FIG. 4). At 0-h as baseline, the percentages of cells in the G1, S, and G2 phases of cell cycle were 54.1±0.7%, 27.6±0.4%, and 18.3±0.8% (mean±SEM), respectively. Following a 24-h incubation […], these percentages were relatively stable for the control group (56.1±1.6%, 32.1±0.6% and 11.7±1.9% for G1, S and G2 phases, respectively).

[5] = 16.25 μmol/L xanthorrhizol, versus control

IC50 ([1]; DU145 cells, 72 h incubation, read-out: IC50, suppression of the proliferation of DU145 cells) [µM] | IC50 ([3]; B16 cells, 48 h incubation, read-out: IC50, concentration required to elicit 50% of growth inhibition) [µM] | SMILES | concentration achieving 90% of growth suppression ([1]; DU145 cells) [µmol/L] | IC50 [2] [µM] | suppression of the growth of B16 cells ([3]; 10 μmol/L d-δ-tocotrienol applied individually) [%] | suppression of the proliferation of murine B16 melanoma cells ([3]; d-δ-tocotrienol 0-40 μmol/L) | percentage of cells at the G1 phase ([4]; 5 μmol/L d-δ-tocotrienol) [%] | suppression of the proliferation of human DU145 prostate carcinoma cells ([1]; xanthorrhizol 0-200 μmol/L) | suppression of the growth of B16 cells ([3]; 16.25 μmol/L xanthorrhizol applied individually) | suppression of the proliferation of murine B16 melanoma cells ([3]; xanthorrhizol 0-200 μmol/L) | G1/S ratio, indicator of cell cycle arrest [4, 5] | percentage of cells at the S phase [4, 5] | percentage of cells at the G1 phase ([4]; 16.25 μmol/L xanthorrhizol) [%]
– | – | CC(C)=CCC/C(C)=C/CC/C(C)=C/CC[C@]1(C)CCc2cc(O)cc(C)c2O1 [d-δ-tocotrienol] | 32 | 14 | ~12 | concentration-dependent suppression | 59.2±1.3 | – | – | – | – | – | –
101 | 65 | CC(C)=CCC[C@@H](C)c1ccc(C)c(O)c1 [xanthorrhizol] | 182 | – | – | – | – | concentration-dependent suppression | approximately 15% | concentration-dependent suppression | significantly higher | decreased | 59.5±0.7
